Test results published in US10450335B2, “Antiviral oxime phosphoramide compounds” (Merck Sharp & Dohme Corp., priority 2015, dated 2019).
Where two headings read alike, the source gives them in different places.

Tests used:
HIV-1 (H9/IIIB strain) = test: Viking assay: antiviral potency in a multiple round HIV-1 infection assay in MT4-GFP cells; type: cell-based; settings: Human immunodeficiency virus 1, IIIB, MT4-GFP cells infected with HIV-1 H9/IIIB, inhibition of reproductive ratio R0
Method: Assessing Antiviral Potency in a Multiple Round HIV-1 Infection Assay (Viking Assay)
The antiviral activity of the tenofovir prodrugs of the Examples herein was assessed in an assay that measures the rate of replication of HIV in cell culture, termed the Viking assay (VIral KINetics in Green cells) and performed as follows. HIV-1 replication was monitored using MT4-gag-GFP clone D3 (hereafter designated MT4-GFP), which are MT-4 cells modified to harbor a GFP reporter gene, the expression of which is dependent on the HIV-1 expressed proteins tat and rev. Productive infection of an MT4-GFP cell with HIV-1 results in GFP expression approximately 24 h post-infection. MT4-GFP cells were maintained at 37° C./5% CO2/90% relative humidity in RPMI 1640 supplemented with 10% fetal bovine serum, 100 U/ml penicillin/streptomycin, and 400 μg/ml G418 to maintain the reporter gene. For infections, MT4-GFP cells were placed in the same medium lacking G418 and infected overnight with HIV-1 (H9/IIIB strain) virus at an approximate multiplicity of infection of 0.01 in the same incubation conditions. Cells were then washed and re-suspended in either RPMI 1640 supplemented with 10% or 50% normal human serum (NHS) at 1.6×10^5 cells/mL (10% NHS or 50% NHS, respectively). Compound plates were prepared by dispensing compounds dissolved in DMSO into wells of 384 well poly-D-lysine-coated plates (0.2 μl/well) using an ECHO acoustic dispenser. Each compound was tested in a 10-point serial 3-fold dilution (typical final concentrations: 8.4 μM-0.42 nM). Controls included no inhibitor (DMSO only) and a combination of three antiviral agents (efavirenz, indinavir, an in-house integrase strand transfer inhibitor at final concentrations of 4 μM each). Cells were added (50 μL/well) to compound plates and the infected cells were maintained at 37° C./5% CO2/90% relative humidity.
Infected cells were quantified at two time points, ˜48 h and ˜72 h post-infection, by counting the number of green cells in each well using an Acumen eX3 scanner. The increase in the number of green cells over ˜24 h period gives the reproductive ratio, R0, which is typically 5-15 and has been shown experimentally to be in logarithmic phase (data not shown). Inhibition of R0 is calculated for each well, and IC50s determined by non-linear 4-parameter curve fitting.

[1] = Prodrug stability assay in bio-relevant media (FaSSIF with Pancreatin, GI tract stability); type: in vitro ADME; settings: HPLC peak area of prodrug at 5 h / 0 h, 0.5 mg/mL Pancreatin in FaSSIF, 37° C.
Method: Prodrug Stability Assay in Bio-Relevant Media
The following assay was employed to evaluate the stability of the prodrugs in simulated gastrointestinal tract conditions. Preparation of fasted state simulated intestinal fluid (FaSSIF) using Phares SIF Powder was carried out according to protocols from Phare Drug Delivery AG (Baselland, Switzerland). For sample preparation, 10 μL stock solutions (10 mM) of prodrug substance in DMSO was added to 990 μL of 0.5 mg/mL Pancreatin solution (Fisher CAS#8049-47-6) in FaSSIF. Two samples were prepared for each compound. If the sample was a clear solution, it was directly analyzed by HPLC. If the sample was not clear, the sample was […] at 37° C. and observed 5 h later. If the sample was clear, HPLC analysis was directly performed. If the sample was still not clear, the sample was diluted with 100% ACN and assayed by HPLC. All the samples were vortexed for 3 min and observed before injection. For the diluted samples, the area is multiplied by a dilution factor when the data is analyzed. The analysis was carried out with an Agilent 1100 series HPLC with autosampler. The column was a Poroshell 120 EC-C18, 4.6×50 mm, […]. The flow rate was 1.8 mL/min, and the injection volume was 5 or 10 μL. UV detection was in the range 210-400 nm. The mobile phase consisted of solvent A (water plus 10 mM tetrabutylammonium bromide) and solvent B (acetonitrile) with a gradient of: 90% solvent A at 0 min, changing to 95% solvent B over 6 min, maintaining for 1.5 min, then reverting to 90% solvent A over 1.6 min. The HPLC peak area of the prodrug at 5 h was divided by the HPLC peak area of the prodrug at 0 h, to generate the % claimed parent ratio, which is summarized in Table 2 for gastrointestinal (GI) Tract stability.

[2] = 10% normal human serum, read-out: Viking, IC50 (10% NHS)
[3] = 50% normal human serum, read-out: Viking, IC50 (50% NHS)

Compound | IC50 (HIV-1 (H9/IIIB strain); [2]) [nM] | IC50 (HIV-1 (H9/IIIB strain); [3]) [nM] | GI Tract stability [1] [%]
CC(C)OC(=O)[C@H](C)NP(=O)(CO[C@H](C)Cn1cnc2c(N)ncnc21)ON=C(C1CC1)C1CC1 (stereo partly drawn) [Example 10, isopropyl (((((R)-1-(6-amino-9H-purin-9-yl)propan-2-yl)oxy)methyl)(((dicyclopropylmethyl-ene)amino)oxy)phosphoryl)-L-alaninate] | 46.8 | 228 | 95.0
CC(C)CC(CC(C)C)=NOP(=O)(CO[C@H](C)Cn1cnc2c(N)ncnc21)NC(C)(C)C(=O)OC(C)C (single isomer, unassigned) [Example 28] | 0.7 | 3.8 | 93.1
CC(C)CC(CC(C)C)=NOP(=O)(CO[C@H](C)Cn1cnc2c(N)ncnc21)NC(C)(C)C(=O)OC1CCC1 (mixture of isomers) [Example 32, cyclobutyl 2-(((R)-((((R)-1-(6-amino-9H-purin-9-yl)propan-2-yl)oxy)methyl)(((2,6-dimethylheptan-4-ylidene)amino)oxy)phosphoryl)amino)-2-methylpropanoate; and cyclobutyl 2-(((S)-((((R)-1-(6-amino-9H-purin-9-yl)propan-2-yl)oxy)methyl)(((2,6-dimethylheptan-4-ylidene)amino)oxy)phosphoryl)amino)-2-methylpropanoate] | – | – | 5.6
CC(C)OC(=O)C(C)(C)NP(=O)(CO[C@H](C)Cn1cnc2c(N)ncnc21)ON=C1CCCC1 (mixture of isomers) [Example 27, isopropyl 2-(((R)-((((R)-1-(6-amino-9H-purin-9-yl)propan-2-yl)oxy)methyl)((cyclopentylideneamino)oxy)phosphoryl)amino)-2-methylpropanoate; and isopropyl 2-(((S)-((((R)-1-(6-amino-9H-purin-9-yl)propan-2-yl)oxy)methyl)((cyclopentylideneamino)oxy)phosphoryl)amino)-2-methylpropanoate] | – | – | 99.3
